These results are taken from US11230526B1, “Cylcoalkenyl derivatives useful as agonists of the GPR120 and/or GPR40 receptors” (Janssen Pharmaceutica NV, priority 2018, dated 2022).

In test [1] the target is T1, Human GPR120 short form (Homo sapiens, UniProt Q5NUL3).
T1 construct: expressed in transfected cells
T1 sequence (Q5NUL3 1-361): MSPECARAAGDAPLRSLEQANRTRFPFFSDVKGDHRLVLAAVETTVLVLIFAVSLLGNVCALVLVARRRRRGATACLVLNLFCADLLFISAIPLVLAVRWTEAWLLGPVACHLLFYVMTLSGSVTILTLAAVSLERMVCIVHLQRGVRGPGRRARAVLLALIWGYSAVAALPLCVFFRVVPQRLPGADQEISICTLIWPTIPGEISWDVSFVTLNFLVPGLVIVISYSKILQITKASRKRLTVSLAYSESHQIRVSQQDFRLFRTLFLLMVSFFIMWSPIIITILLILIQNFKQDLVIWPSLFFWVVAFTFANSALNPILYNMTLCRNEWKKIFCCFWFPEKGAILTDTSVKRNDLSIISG
The experiment in a line: Human GPR120 calcium flux assay, Procedure Calcium B (4200 cells/well). Format: cell-based. The protocol:
Human GPR120 in Calcium Flux Assay
These cells are first loaded with the Ca^+2 sensitive dye, Fluo-4 NW. Upon stimulation, intracellular released Ca^+2 can bind to the dye and alter its fluorescence intensity. This increase in fluorescence signal, and thus the flux in intracellular [Ca^2+], is detected and quantitated by fluorescence imaging using a FLIPR reader. The effect of the agonist is measured as a function of concentration and used to calculate an EC50 based upon a response curve.
In this procedure 4200 cells/well were employed.
A Human GPR120 clone (Genbank accession number NM_001195755.1) was placed into the pcDNA3.1 mammalian expression vector carrying the neomycin resistance gene. A stable mammalian cell was generated by placing the above clone into a HEK293 background. […] Cells were split 2 times a week to keep the cells in the log-phase growth. […]
The assay was performed on a FLIPR plate reader using the following parameters. Baseline was read for 10 seconds at 1 sec intervals. The program was set to transfer 10 μL of ligand from compound plate to cell plate after baseline reading. Aspiration was executed at: 10 μL/sec speed, 4.6 μL height, Dispensing was executed at: 30 μL/sec speed, 45 μL height. After compound addition, each well was read for 300 sec, with measurements collected at 1 sec intervals.
The kinetic data from the FLIPR was based upon a 5 minute window for data collection. The fluorescence of each sample well was used for individual calculations of a normalized RFU value, which was defined as maximum response minus the minimum response. The normalized fluorescence reading (RFU) was calculated as follows: RFU=Fmax−Fmin
The Fitting Equation was: Y=Bottom+(Top-Bottom)/(1+10^((Log EC50−X)*HillSlope)), where X is the log of the concentration and Y is the response.
In general terms: Calcium flux is commonly read through the fluorescence of an indicator in the cells.

Test [2] concerns the target T2, human GPR40 (Homo sapiens, UniProt O14842).
T2 construct: expressed in transfected cells
In words: GPR40 calcium flux assay, human GPR40. Format: cell-based. The following applies: HEK293 cells stably expressing GPR40; table does not say human or rat. As to the method:
Compounds were tested in a calcium flux assay using transfected HEK293 cells stably expressing either human GPR40 or rat GPR40. Human GPR40 expressing cells were cultured in DMEM−High Glucose media supplemented with 10% fetal bovine serum, 1×L-Glutamine, 1×Penicillin/Streptomycin and 500 μg/mL G418. Rat GPR40 expressing cells were cultured in DMEM−High Glucose media supplemented with 10% fetal bovine serum and 1 μg/mL puromycin. Cells were plated into poly-D-lysine coated 384-well plates and cultured overnight in a 37° C. humidified tissue culture incubator under 5% CO2/[…] atmosphere.
On the day of the experiment, the culture media was replaced with assay buffer (HBSS, 20 mM HEPES, 0.1% BSA) and the cells incubated at 37° C. for 1 h. Calcium-sensitive fluorescent dye (Fluo 8 No-Wash Calcium Dye, ABD Bioquest) was then added and the cells incubated for another 30 min at 37° C. followed by 15 min at room temperature while protected from the light. The cell plate and a plate of diluted compounds of Formula (I) were loaded into a fluorescent plate reader that added compounds onto the cells while measuring the fluorescence intensity of each well. The plate reader recorded fluorescence intensity at 1 second intervals for 8 min and provided the data for analysis in an Excel format. EC50 values were calculated using Prism (GraphPad) software.

Some results are limits rather than exact numbers.

T2 sequence (O14842 whole entry): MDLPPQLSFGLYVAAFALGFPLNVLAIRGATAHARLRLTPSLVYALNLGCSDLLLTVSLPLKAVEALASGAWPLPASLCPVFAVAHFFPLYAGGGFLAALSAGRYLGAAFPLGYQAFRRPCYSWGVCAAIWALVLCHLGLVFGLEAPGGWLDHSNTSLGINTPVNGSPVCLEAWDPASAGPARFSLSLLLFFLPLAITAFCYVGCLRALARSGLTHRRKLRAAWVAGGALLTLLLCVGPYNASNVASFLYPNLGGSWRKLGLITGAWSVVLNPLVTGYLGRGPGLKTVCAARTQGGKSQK

One may read the EC50 as the concentration that produces a half-maximal response. On to `Cc1ccc(C2=C(COc3ccc(CCC(=O)O)cc3)CCC2)c(C)c1` [Compound 245, 3-[4-[[2-(2,4-dimethylphenyl)cyclopenten-1-yl]methoxy]phenyl]Propanoic Acid], for which the EC50 was 2000 nM in test [1] and 1910 nM in test [2].

With `CCCCC1=C(COc2ccc(CCC(=O)O)cc2)CCCC1` [Compound 588, 3-[4-[(2-butylcyclohexen-1-yl)methoxy]phenyl]Propanoic Acid], the concentration giving a half-maximal response (EC50) is 1140 nM in test [1] and 1920 nM in test [2].

`COc1cc(OCC2=C(C3CCCC3)CCC2)ccc1CCC(=O)O` [Compound 434, 3-[4-[(2-cyclopentylcyclopenten-1-yl)methoxy]-2-methoxy-phenyl]Propanoic Acid]: the EC50 was 387 nM in test [1] and 59 nM in test [2].

`O=C(O)CCc1cc(F)c(OCC2=C(c3ccc(Cl)cc3)CCC2)cc1C(F)(F)F` [Compound 91, 3-[4-[[2-(4-chlorophenyl)cyclopenten-1-yl]methoxy]-5-fluoro-2-(trifluoromethyl)phenyl]Propanoic Acid]: the EC50 in test [1] and in test [2] was above 5000 nM each time.

With `Cc1c(CCC(=O)O)ccc(OCC2=C(c3ccc(Cl)cc3)CC(C(C)C)CC2)c1C` (stereo not shown) [Compound 500, 3-[4-[[2-(4-chlorophenyl)-4-isopropyl-cyclohexen-1-yl]methoxy]-2,3-dimethyl-phenyl]Propanoic Acid], the 50% effective concentration (EC50) in test [1] is 1530 nM; in test [2] it was above 5000 nM.

On to `O=C(O)CCc1ccc(OCC2=C(Cc3cncs3)CCCC2)cc1C(F)(F)F` [Compound 596, 3-[4-[[2-(thiazol-5-ylmethyl)cyclohexen-1-yl]methoxy]-2-(trifluoromethyl)phenyl]Propanoic Acid], for which the EC50 in test [1] came to 2370 nM; in test [2] it was 324 nM.

In the case of `Cc1cc(CCC(=O)O)ccc1OCC1=C(Cc2ccccc2)CCC1` [Compound 315, 3-[4-[(2-benzylcyclopenten-1-yl)methoxy]-3-methyl-phenyl]Propanoic Acid], the EC50 in test [1] was 185 nM; in test [2], above 5000 nM.

In the case of `O=C(O)CCc1cc(F)c(OCC2=C(C3CCCC3)CCC2)cc1C(F)(F)F` [Compound 433, 3-[4-[(2-cyclopentylcyclopenten-1-yl)methoxy]-5-fluoro-2-(trifluoromethyl)phenyl]Propanoic Acid], the results for the EC50 in test [1] and in test [2] were above 5000 nM and above 10000 nM, respectively.

Consider `N#Cc1cc(OCC2=C(c3ccc(F)cc3)CCC2)ccc1CCC(=O)O` [Compound 237, 3-[2-cyano-4-[[2-(4-fluorophenyl)cyclopenten-1-yl]methoxy]phenyl]Propanoic Acid], for which the EC50 is above 5000 nM in test [1] and 923 nM in test [2].

On to `O=C(O)CCc1ccc(OCC2=C(C3CCCC3)CCC2)cc1C(F)(F)F` [Compound 398, 3-[4-[(2-cyclopentylcyclopenten-1-yl)methoxy]-2-(trifluoromethyl)phenyl]Propanoic Acid], for which the EC50 turned out to be 556 nM in test [1] and 8 nM in test [2].

On to `CC(C)c1cc(OCC2=C(C3CCCC3)CCC2)ccc1CCC(=O)O` [Compound 410, 3-[4-[(2-cyclopentylcyclopenten-1-yl)methoxy]-2-isopropyl-phenyl]Propanoic Acid], for which the EC50 worked out at 996 nM in test [1] and 128 nM in test [2].

As to `O=C(O)CCc1ccc(OCC2=C(Cc3ccccc3)CC(F)(F)C2)cc1Cl` [Compound 364, 3-[4-[(2-benzyl-4,4-difluoro-cyclopenten-1-yl)methoxy]-2-chloro-phenyl]Propanoic Acid], the values for the EC50 in test [1] and in test [2] were 891 nM and 49 nM, respectively.

Turning to `Cc1cc(OCC2=C(C3CC3)CCC2)c(F)cc1CCC(=O)O` [Compound 373, 3-[4-[(2-cyclopropylcyclopenten-1-yl)methoxy]-5-fluoro-2-methyl-phenyl]Propanoic Acid], the values for the EC50 in test [1] and in test [2] were 1450 nM and 2380 nM, respectively.

For the compound `Cc1cc(OCC2=C(c3ccc(F)cc3)CCC2)c(F)cc1CCC(=O)O` [Compound 304, 3-[5-fluoro-4-[[2-(4-fluorophenyl)cyclopenten-1-yl]methoxy]-2-methyl-phenyl]Propanoic Acid], the EC50 in test [1] worked out at 502 nM; in test [2] it was 1110 nM.
